The assay has as its system Plutella xylostella. Nature of the assay: Insecticidal effect on Plutella xylostella (leaf disc immersion). Type of assay: in vivo. Conditions: foliar, 72 h, read-out: insecticidal activity on Plutella xylostella (mortality %). The protocol: The test reagents were all dissolved in a mixed solvent of acetone:N′N′-dimethylcarboxamide (1:1) to give a 1000 mg/L solution. 1% Tween-80 was added as an emulsifier to each solution. These solutions were then diluted with 1% Tween-20 solution in water to give desired concentrations of test solutions. An aqueous solution containing 1% Tween-20 was used as a control.
Third instar larvae of Plutella xylostella were used. Cabbages were washed, air dried, punched into leaf discs, immersed in reagent solutions for 10 sec, taken out, naturally dried and then placed in a Petri dish. 10 third-instar larvae of Plutella xylostella were inoculated to each Petri dish, and three replicates were set. The number of deaths in 3 days was investigated, and the mortality was calculated.

The mark [1] stands for this setting: concentration 0.05 ppm, third instar larvae, 3 days.
[2] abbreviates: concentration 0.5 ppm, third instar larvae, 3 days.

Where two headings read alike, the source gives them in different places.

In general, mortality refers to the share of the test organisms that died.

For the molecule `CC(C)(C#N)NC(=O)c1cc(Cl)cc(Cl)c1NC(=O)c1cc(Br)nn1-c1ncccc1Cl` [KC2], for the setting “concentration 0.01 ppm, third instar larvae, 3 days”, the mortality at 0.01 ppm came to 28.1%. The mortality at 0.05 ppm under setting [1] came out at 51.4%. In addition, the mortality at 0.5 ppm under setting [2] was found to be 88.2%.

`Cc1cc(Cl)cc(C(=O)NC(C)(C)C#N)c1NC(=O)c1cc(Br)nn1-c1ncccc1Cl` [KC1]: the mortality at 0.05 ppm under setting [1] came out at 45.7%. The mortality at 0.5 ppm under setting [2] was 71.9%.

Consider `CN(C(=O)c1cc(Cl)cc(Cl)c1NC(=O)c1cc(Br)nn1-c1ncccc1Cl)C(C)(C)C#N` [Compound 1.15, N-(6-N-((2-cyanopropan-2-yl)-N-methylcarbamoyl)-2,4-dichlorophenyl)-1-(3-chloropyridin-2-yl)-3-bromo-1H-pyrazol-5-carboxamide], for which the mortality at 0.01 ppm was 66.7%, the mortality at 0.05 ppm is 86.7% and the mortality at 0.5 ppm was determined as 100%.

The record behind these values is patent US11390602B2, “N-alkyl-N-cyanoalkylbenzamide compound and use thereof” (JIANGSU FLAG CHEMICAL INDUSTRY CO., LTD., priority 2017, dated 2022).
